≈ marks a conversion by molar mass, not a printed value. Where two headings read alike, the source gives them in different places.
Assays:
[1] = system: S. aureus ATCC 29213 (MSSA); test: Broth microdilution MIC and growth inhibition; type: cell-based, Staphylococcus aureus; details: for MIC: Staphylococcus aureus; for % Growth inhibition: mean ± SD, n = 3
Excerpt: (§1) Bacteria strains. S. aureus NCTC 12493 (MRSA), S. aureus ATCC 29213 (MSSA), S. aureus ATCC 43300 (MRSA), S. aureus ATCC 1707 (MRSA), S. aureus ATCC 1717 (MRSA), S. aureus ATCC 1747 (MRSA), S. aureus ATCC 1761 (MRSA), S. aureus ATCC 1766 (MRSA), S. aureus ATCC 1768 (MRSA), S. epidermidis ATCC 35984, E. coli ATCC 25922, K. pneumoniae ATCC 13883, P. mirabilis ATCC 25933, S. enterica ATCC 14028 and P. aeruginosa ATCC 10145 strains were used in this study. Bacteria were initially inoculated onto tryptone soy agar with 5% defibrinated sheep blood (Thermo Fisher Scientific, Inc., Waltham, MA, USA) and incubated at 37° C. for 24 hours. Then, single colonies of each strain were transferred to tryptone soy broth (Thermo Fisher Scientific) for the nuclease activity assay or antimicrobial susceptibility testing, respectively.
(§2) Antimicrobial susceptibility testing. Minimal inhibitory concentrations (MIC) of all nucleoside analogues and TOUCANs against each bacteria strain were determined using broth microdilution method. A single colony obtained from overnight culture on tryptone soy agar with 5% defibrinated sheep blood was inoculated in cation-adjusted Mueller Hinton Broth and adjusted to 10^6 CFU/mL. TOUCANs were prepared in PBS+/+ (treatment) and serial dilutions were made in 96-well polystyrene round bottom microwell plates with 50 μL final volume for each concentration. PBS+/+ was used as untreated control. Next, 50 μL bacteria solutions were added to each well to a final bacteria concentration of 5×10^5 CFU/mL. Plates were incubated at 37° C. in Cytation 1 Cell Imaging Multimode Reader. Growth curves were obtained by measuring optical densities at 600 nm every 10 minutes for 18 hours using Cytation 1 Cell Imaging Multimode Reader. In addition, visual inspection of the plates was carried out after 18 hours and photographs were taken. MICs were defined as the lowest drug concentration in the microwell at which bacterial growth was not visible at the end of the incubation period. Besides MIC determination, specificity of TOUCAN 7mGe was also shown with subcultures on chromogenic media. For this purpose, 5 μL of different concentrations of each strain were inoculated onto CHROM agar Orientation Media (Becton Dickinson) and the bacterial growth of each bacteria strain tested was observed by naked eye after incubation at 37° C. for 24 hours. Finally, photographs of the chromogenic media were taken.

[2] = system: S. aureus NCTC 12493 (MRSA); test: Broth microdilution MIC and growth inhibition; type: cell-based, Staphylococcus aureus; details: for MIC: Staphylococcus aureus; for % Growth inhibition: mean ± SD, n = 3
Excerpt: as §1, §2

P. mirabilis ATCC 25933 = test: Broth microdilution MIC and growth inhibition (control bacteria); type: cell-based, Proteus mirabilis; details: Proteus mirabilis, ATCC25933, 18 h, TOUCAN as NA equivalent, read-out: MIC
Excerpt: as §1, §2

S. aureus = test: Growth inhibition curves / MICs in S. aureus cultures (strain not named or summary over strains); type: cell-based, Staphylococcus aureus; details: for MIC: Staphylococcus aureus; for bacterial growth inhibition: S. aureus cultures, optical density (OD) over 18 h, FIG. 1b
Method: as §2

E. coli ATCC 25922 = test: Broth microdilution MIC and growth inhibition (control bacteria); type: cell-based, Escherichia coli; details: Escherichia coli, ATCC25922, 18 h, TOUCAN as NA equivalent, read-out: MIC
Excerpt: as §1, §2

[3] = system: Breast cancer cells (MDAMB231); test: Anti-cancer drug susceptibility testing, breast cancer cells, 72 h; type: cell-based; details: 72 h of treatment; Gemcitabine alone, TOUCAN 7mGe spiked with MN; FIG. 14
Method: (§3) Anti-cancer drug susceptibility testing for TOUCAN 7mGe. Gemcitabine and equivalent 7mGe solutions were prepared as explained before. Then, 7mGe was pre-exposed to 10 μl of 10 U MN for 1 hour at 37° C. (7mGe+MN). 100 μl of both drugs (Gemcitabine and 7mGe+MN) were added to the related wells and serially diluted using PBS+/+making the final concentrations between 100-2 μg/μl. Breast cancer cells (MDAMB231) and Pancreatic cancer cells (ASPC-1) were prepared as 10.000 cells/ml and 100 μl cell suspensions were added to each well. The plate was incubated at 37° C. for 72 hours. At 48th hour of incubation, 100 μl CyQUANT® Direct Cell Proliferation Assay kit was added to each well. Cell counts and images were taken at the end of 72 hours incubation period using Cytation 1 Cell Imaging Multi-Mode Reader.

[4] = system: S. aureus ATCC 1766 (MRSA); test: Broth microdilution MIC and growth inhibition; type: cell-based, Staphylococcus aureus; details: Staphylococcus aureus; S. aureus ATCC 1766 (MRSA); 18 h; TOUCAN as NA equivalent; read-out: MIC
Excerpt: as §1, §2

[5] = system: S. aureus ATCC 43300 (MRSA); test: Broth microdilution MIC and growth inhibition; type: cell-based, Staphylococcus aureus; details: Staphylococcus aureus, 18 h, TOUCAN as NA equivalent, read-out: MIC
Excerpt: as §1, §2

[6] = system: S. aureus ATCC 1761 (MRSA); test: Broth microdilution MIC and growth inhibition; type: cell-based, Staphylococcus aureus; details: Staphylococcus aureus, 18 h, TOUCAN as NA equivalent, read-out: MIC
Excerpt: as §1, §2

[7] = system: S. aureus ATCC 1707 (MRSA); test: Broth microdilution MIC and growth inhibition; type: cell-based, Staphylococcus aureus; details: Staphylococcus aureus, 18 h, TOUCAN as NA equivalent, read-out: MIC
Excerpt: as §1, §2

[8] = system: S. aureus ATCC 1768 (MRSA); test: Broth microdilution MIC and growth inhibition; type: cell-based, Staphylococcus aureus; details: Staphylococcus aureus, 18 h, TOUCAN as NA equivalent, read-out: MIC
Excerpt: as §1, §2

[9] = system: S. aureus ATCC 1717 (MRSA); test: Broth microdilution MIC and growth inhibition; type: cell-based, Staphylococcus aureus; details: Staphylococcus aureus, 18 h, TOUCAN as NA equivalent, read-out: MIC
Excerpt: as §1, §2

[10] = system: S. aureus ATCC 1747 (MRSA); test: Broth microdilution MIC and growth inhibition; type: cell-based, Staphylococcus aureus; details: Staphylococcus aureus, 18 h, TOUCAN as NA equivalent, read-out: MIC
Excerpt: as §1, §2

K. pneumoniae ATCC 13883 = test: Broth microdilution MIC and growth inhibition (control bacteria); type: cell-based; details: Klebsiella pneumoniae, ATCC13883, 18 h, TOUCAN as NA equivalent, read-out: MIC
Excerpt: as §1, §2

P. aeruginosa ATCC 10145 = test: as above; type: cell-based; details: Pseudomonas aeruginosa, ATCC10145, 18 h, TOUCAN as NA equivalent, read-out: MIC
Excerpt: as §1, §2

S. enterica ATCC 14028 = test: as above; type: cell-based; details: Salmonella enterica, ATCC14028, 18 h, TOUCAN as NA equivalent, read-out: MIC
Excerpt: as §1, §2

[11] = system: Pancreatic cancer cells (ASPC-1); test: Anti-cancer drug susceptibility testing, pancreatic cancer cells, 72 h; type: cell-based; details: 72 h cultures; Gemcitabine alone, TOUCAN 7mGe spiked with MN; FIG. 13
Method: as §3

[12] = system: S. epidermidis ATCC 35984; test: Broth microdilution MIC and growth inhibition (control bacteria); type: cell-based, Staphylococcus epidermidis; details: Staphylococcus epidermidis, ATCC35984; S. epidermidis ATCC 35984; 18 h; TOUCAN as NA equivalent; read-out: MIC
Excerpt: as §1, §2

[13] = system: Staphylococcus epidermidis (MN-); test: Nuclease activity assay with culture supernatants (negative control); type: biochemical; details: S. epidermidis cultures; FIG. 3
Method: (§4) Nuclease activity assay. Nuclease activity of different S. aureus strains was evaluated using the TTprobe and TTprobe 2, along with the S. epidermidis as negative control and Micrococcal Nuclease (MN) as positive control. Single colonies of each bacteria strain isolated on tryptone soy agar were transferred to 50 mL tryptone soy broth and incubated at 37° C. for 24 hours with 200 rpm shaking. After the incubation period, 100 μL volumes of liquid cultures were transferred to a fresh 50 mL tryptone soy broth (1/500 dilution) and incubated under the same conditions for 12 hours. Next, cultures were centrifuged at 4500 g for 30 minutes and the supernatants were used for the nuclease activity assay. Briefly, 8 μL of supernatants were mixed with 1 μL PBS+/+ and 1 μL TT probe. The reactions were incubated at 37° C. for 1 hour. Then, 290 μL of 10 mM EDTA in PBS−/− solution were added to stop the reaction and the final solution was divided into triplicate wells (95 μL each), in a black flat-bottom polystyrene plates (Thermo Scientific F96). Fluorescence intensity was acquired at 485/20 excitation and 528/20 emission filter pair using Cytation 1 Cell Imaging Multimode Reader (Biotek Instruments Inc., USA).

S. aureus (MN+) = test: Nuclease activity assay with culture supernatants; type: biochemical, Staphylococcus aureus
Method: as §4

[14] = system: Breast cancer cells (MDAMB231); test: Anti-cancer drug susceptibility testing for TOUCAN 7mDx, breast cancer cells, 96 h; type: cell-based; details: FIG. 15
Method: Anti-cancer drug susceptibility testing for TOUCAN 7mDx. Doxorubicin and equivalent 7mDx solutions were prepared as explained before. Then, 7mDx was pre-exposed to 5 μl of 10 U MN for 1 hour at 37° C. (7mDx+MN). 100 μl of all drugs (Doxorubicin, 7mDx, and 7mDx+MN) were added to the related wells and serially diluted using PBS+/+making the final concentrations between 20-0.3 μg/μl. Breast cancer cells (MDAMB231) were prepared as 20.000 cells/ml and 100 μl cell suspensions were added to each well. The plate was incubated at 37° C. for 96 hours. At 48th hour of incubation, 100 μl CyQUANT® Direct Cell Proliferation Assay kit was added to each well. Cell counts and images were taken at the end of 96 hours incubation period using Cytation 1 Cell Imaging Multi-Mode Reader.

[15] = Table 1, S. aureus ATCC 29213, read-out: MIC
[16] = Table 1, S. aureus NCTC 12493, read-out: MIC

Nc1ccn([C@@H]2O[C@H](CO)[C@@H](O)[C@@H]2O)c(=O)n1 [Cytarabine]
MIC [1, 15]: > 40000 ng/mL
% Growth inhibition ([1]; Table 1, S. aureus ATCC 29213): 16.3 ± 6.9%
MIC [2, 16]: > 40000 ng/mL
% Growth inhibition ([2]; Table 1, S. aureus NCTC 12493): 39.4 ± 2.5%

Nc1ccn([C@@H]2O[C@H](CO)[C@@H](O)C2(F)F)c(=O)n1 [Gemcitabine, reference compound]
MIC (P. mirabilis ATCC 25933): > 40000 ng/mL
MIC (S. aureus; read-out: MIC values over all S. aureus strains tested): 4 to 16 ng/mL (≈ 0.0152 to 0.0608 µM)
MIC (S. aureus; S. aureus, strain not given, read-out: MIC): 4 ng/mL (≈ 0.0152 µM)
MIC (E. coli ATCC 25922): > 40000 ng/mL
therapeutic effect in breast cancer cells (viability) [3]: clear therapeutic effect
MIC [4]: 8 ng/mL
MIC [5]: 4 ng/mL
MIC [6]: 16 ng/mL
MIC [7]: 8 ng/mL
MIC [8]: 8 ng/mL
MIC [9]: 8 ng/mL
MIC [10]: 8 ng/mL
MIC ([1]; S. aureus ATCC 29213 (MSSA), 18 h, TOUCAN as NA equivalent, read-out: MIC): 4 ng/mL
MIC [1, 15]: 4 ng/mL (≈ 0.0152 µM)
% Growth inhibition ([1]; Table 1, S. aureus ATCC 29213): 94.2 ± 0.04%
MIC ([2]; S. aureus NCTC 12493 (MRSA), 18 h, TOUCAN as NA equivalent, read-out: MIC): 4 ng/mL
MIC [2, 16]: 4 ng/mL (≈ 0.0152 µM)
% Growth inhibition ([2]; Table 1, S. aureus NCTC 12493): 93.7 ± 0.2%
MIC (K. pneumoniae ATCC 13883): > 40000 ng/mL
MIC (P. aeruginosa ATCC 10145): > 40000 ng/mL
MIC (S. enterica ATCC 14028): > 40000 ng/mL
killing of pancreatic cancer cells (viability) [11]: efficient in killing
MIC [12]: 2 ng/mL

O=c1[nH]c(=O)n([C@H]2C[C@H](O)[C@@H](CO)O2)cc1I [Idoxuridine]
MIC [1, 15]: > 40000 ng/mL
% Growth inhibition ([1]; Table 1, S. aureus ATCC 29213): 13.4 ± 3.4%
MIC [2, 16]: > 40000 ng/mL
% Growth inhibition ([2]; Table 1, S. aureus NCTC 12493): 46.0 ± 0.6%

O=c1[nH]c(=O)n([C@H]2C[C@H](O)[C@@H](CO)O2)cc1C(F)(F)F [Trifluridine]
MIC [1]: 10000 ng/mL (≈ 33.8 µM)
% Growth inhibition ([1]; Table 1, S. aureus ATCC 29213): 89.0 ± 5.1%
MIC [2]: 10000 ng/mL (≈ 33.8 µM)
% Growth inhibition ([2]; Table 1, S. aureus NCTC 12493): 88.5 ± 1.1%

Nc1ncnc2c1ncn2[C@@H]1O[C@H](CO)[C@@H](O)[C@@H]1O [Vidarabine]
MIC [1, 15]: > 40000 ng/mL
% Growth inhibition ([1]; Table 1, S. aureus ATCC 29213): 34.1 ± 0.8%
MIC [2, 16]: 40000 ng/mL (≈ 150 µM)
% Growth inhibition ([2]; Table 1, S. aureus NCTC 12493): 85.1 ± 0.8%

FAM-mU-mU-mU-mU-T-T-mU-mU-mU-mU-TQ2 [TTprobe2]
stability in presence of control bacteria [13]: rendered stable
degradation by nucleases (S. aureus (MN+); S. aureus cultures, FIG. 3): efficient degradation
degradation by nucleases (S. aureus (MN+); all S. aureus strains used in the study, FIG. 4): efficiently

T-T-Ge-mU-mU-mU-mU [SDR probe]
inhibition of bacterial growth (therapeutic efficacy) (S. aureus; combinations of the R-S-D moieties, FIG. 1c): 30%

mU-mU-mU-mU-Ge-T-T-mU-mU-mU-mU (UUUUGTTUUUU; chemistry not given here) [GeTT, TOUCAN with Gemcitabine upstream of TT]
bacterial growth inhibition (S. aureus): low growth inhibition efficiency

mU-mU-mU-mU-Ge-mU-mU-mU-mU [Ge-Control]
bacterial growth inhibition (S. aureus): low growth inhibition efficiency

mU-mU-mU-mU-T-T-Dx [TOUCAN 7mDx]
effect on viability of breast cancer cells ([14]; 7mDx alone (no nuclease)): did not show a significant effect on viability
therapeutic efficacy in breast cancer cells (viability) ([14]; 7mDx spiked with MN): remarkable therapeutic efficacy

mU-mU-mU-mU-T-T-Ge-mU-mU-mU-mU (UUUUTTGUUUU; chemistry not given here) [TTGe, TOUCAN with Gemcitabine downstream of TT]
bacterial growth inhibition (S. aureus): around 20%
